Data published in publication PMC12751012, “Nanoscale Direct-to-Biology Optimization and Structural Insights into Selective S. aureus TrmD Inhibitors” (Journal of Medicinal Chemistry, 2025).

Biological target: T1, S. aureus TrmD (Staphylococcus aureus, UniProt Q2FZ43)
T1 construct: made in house; host or cells: E. coli BL21
T1 sequence (Q2FZ43 1-245): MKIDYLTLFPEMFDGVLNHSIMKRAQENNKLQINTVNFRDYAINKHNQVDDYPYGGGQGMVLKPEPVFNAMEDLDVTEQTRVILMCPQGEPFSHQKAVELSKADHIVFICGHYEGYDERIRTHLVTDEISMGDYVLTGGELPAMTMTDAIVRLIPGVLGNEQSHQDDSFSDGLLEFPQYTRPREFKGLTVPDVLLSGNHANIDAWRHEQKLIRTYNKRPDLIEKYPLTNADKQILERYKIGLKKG
Assay: nanoSAR direct-to-biology FP displacement screening of crude triazoles
Assay type: binding
Conditions: crude triazole at 1 μM, assuming full conversion; 500 nM TrmD, 10 nM tracer 4; read-out: % displaced tracer
In short: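 Crude CuAAC triazoles from alkyne 7 and 320 diverse azides were screened by FP displacement of 10 nM tracer 4 from 500 nM S. aureus TrmD. Buffer was 40 mM Tris HCl, 100 mM NaCl, 10 mM MgCl2, 5% glycerol, pH 7.5.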

Row | SMILES | inhibition at 1 µM
1 | O=c1[nH]cnc2[nH]cc(-c3cn(Cc4nc5ccccc5o4)nn3)c12 [Compound 02G05, O=C1NC=NC=2NC=C(C=3N=NN(C3)CC=4Oc5c(N4)cccc5)C12] | 38%
2 | COC[C@H](O)Cn1cc(-c2c[nH]c3nc[nH]c(=O)c23)nn1 [Compound 02G06, O=C1NC=NC=2NC=C(C=3N=NN(C3)C[C@@H](O)COC)C12] | 13%
3 | O=c1[nH]cnc2[nH]cc(-c3cn([C@H](CC4CCCCC4)c4ncccn4)nn3)c12 [Compound 02G07, O=C1NC=NC=2NC=C(C=3N=NN(C3)[C@@H](c4ncccn4)CC5CCCCC5)C12] | 30%
4 | CC(C)(C)OC(=O)N[C@@]12CC[C@@H](C[C@H]1n1cc(-c3c[nH]c4nc[nH]c(=O)c34)nn1)C2 [Compound 02G08, O=C(OC(C)(C)C)N[C@@]12[C@H](N3N=NC(C=4C=5C(=O)NC=NC5NC4)=C3)C[C@@H](C1)CC2] | 12%
5 | Cc1ccccc1Cn1cc(-c2c[nH]c3nc[nH]c(=O)c23)nn1 [Compound 02G09, O=C1NC=NC=2NC=C(C=3N=NN(C3)Cc4c(cccc4)C)C12] | 75%
6 | N#Cc1cnn(CCn2cc(-c3c[nH]c4nc[nH]c(=O)c34)nn2)c1 [Compound 02G10, O=C1NC=NC=2NC=C(C=3N=NN(C3)CCN4N=CC(C#N)=C4)C12] | 38%
7 | O=c1[nH]cnc2[nH]cc(-c3cn([C@@H]4CCCc5cccnc54)nn3)c12 [Compound 02G11, O=C1NC=NC=2NC=C(C=3N=NN(C3)[C@H]4c5ncccc5CCC4)C12] | 18%
8 | N[C@H]1C[C@@H](n2cc(-c3c[nH]c4nc[nH]c(=O)c34)nn2)C1 [Compound 02G12, O=C1NC=NC=2NC=C(C=3N=NN(C3)[C@@H]4C[C@H]([NH3+])C4)C12] | 31%
9 | CNC(=O)CCn1cc(-c2c[nH]c3nc[nH]c(=O)c23)nn1 [Compound 02H01, O=C1NC=NC=2NC=C(C=3N=NN(C3)CCC(=O)NC)C12] | 21%
10 | N#Cc1cc(Cl)ccc1-n1cc(-c2c[nH]c3nc[nH]c(=O)c23)nn1 [Compound 02H02, Clc1cc(C#N)c(N2N=NC(C=3C=4C(=O)NC=NC4NC3)=C2)cc1] | 0%
11 | O=c1[nH]cnc2[nH]cc(-c3cn(Cc4ccc(F)cc4F)nn3)c12 [Compound 02H03, Fc1c(ccc(F)c1)CN2N=NC(C=3C=4C(=O)NC=NC4NC3)=C2] | 49%
12 | O=c1[nH]cnc2[nH]cc(-c3cn(C4CCNCC4)nn3)c12 [Compound 02H04, O=C1NC=NC=2NC=C(C=3N=NN(C3)C4CC[NH2+]CC4)C12] | 28%
13 | O=c1[nH]cnc2[nH]cc(-c3cn(CC(F)(F)c4ccccc4)nn3)c12 [Compound 02H05, FC(F)(c1ccccc1)CN2N=NC(C=3C=4C(=O)NC=NC4NC3)=C2] | 46%
14 | O=c1[nH]cnc2[nH]cc(-c3cn(C[C@H](O)Cc4cccc(F)c4)nn3)c12 [Compound 02H06, Fc1cc(ccc1)C[C@@H](O)CN2N=NC(C=3C=4C(=O)NC=NC4NC3)=C2] | 27%
15 | O=c1[nH]cnc2[nH]cc(-c3cn(CCCN4CCSCC4)nn3)c12 [Compound 02H07, S1CC[NH+](CC1)CCCN2N=NC(C=3C=4C(=O)NC=NC4NC3)=C2] | 59%
16 | COc1ccc(-n2cc(-c3c[nH]c4nc[nH]c(=O)c34)nn2)cc1 [Compound 02H08, O=C1NC=NC=2NC=C(C=3N=NN(c4ccc(OC)cc4)C3)C12] | 9%
17 | C[C@H](c1ccccc1Cl)n1cc(-c2c[nH]c3nc[nH]c(=O)c23)nn1 [Compound 02H09, Clc1c(cccc1)[C@H](N2N=NC(C=3C=4C(=O)NC=NC4NC3)=C2)C] | 44%
18 | O=c1[nH]cnc2[nH]cc(-c3cn([C@H]4CCn5cccc5C4)nn3)c12 [Compound 02H10, O=C1NC=NC=2NC=C(C=3N=NN(C3)[C@@H]4CC=5N(C=CC5)CC4)C12] | 24%
19 | C[C@H](c1ccc(Cl)cc1)n1cc(-c2c[nH]c3nc[nH]c(=O)c23)nn1 [Compound 02H11, Clc1ccc(cc1)[C@H](N2N=NC(C=3C=4C(=O)NC=NC4NC3)=C2)C] | 41%
20 | CN(CCn1cc(-c2c[nH]c3nc[nH]c(=O)c23)nn1)Cc1cccc(F)c1 [Compound 02H12, Fc1cc(ccc1)C[N@H+](CCN2N=NC(C=3C=4C(=O)NC=NC4NC3)=C2)C] | 65%
21 | CS(=O)(=O)c1cc(Cn2cc(-c3c[nH]c4nc[nH]c(=O)c34)nn2)cc(C(F)(F)F)c1 [Compound 03A01, S(=O)(=O)(c1cc(cc(c1)CN2N=NC(C=3C=4C(=O)NC=NC4NC3)=C2)C(F)(F)F)C] | 63%
22 | CN(C)CCn1cc(-c2c[nH]c3nc[nH]c(=O)c23)nn1 [Compound 03A02, O=C1NC=NC=2NC=C(C=3N=NN(C3)CC[NH+](C)C)C12] | 44%
23 | O=C(Cn1cc(-c2c[nH]c3nc[nH]c(=O)c23)nn1)NCc1ccccc1 [Compound 03A03, O=C1NC=NC=2NC=C(C=3N=NN(C3)CC(=O)NCc4ccccc4)C12] | 36%

Row | SMILES | inhibition at 1 µM
24 | O=c1[nH]cnc2[nH]cc(-c3cn(-c4ccc(S(F)(F)(F)(F)F)cc4)nn3)c12 [Compound 03A04, S(F)(F)(F)(F)(F)c1ccc(N2N=NC(C=3C=4C(=O)NC=NC4NC3)=C2)cc1] | 16%
25 | O=C1NCCCC[C@H]1n1cc(-c2c[nH]c3nc[nH]c(=O)c23)nn1 [Compound 03A05, O=C1NC=NC=2NC=C(C=3N=NN(C3)[C@H]4C(=O)NCCCC4)C12] | 40%
26 | N#CCC1(Cn2cc(-c3c[nH]c4nc[nH]c(=O)c34)nn2)CC1 [Compound 03A06, O=C1NC=NC=2NC=C(C=3N=NN(C3)CC4(CC#N)CC4)C12] | 65%
27 | O=c1[nH]cnc2[nH]cc(-c3cn(C[C@@H]4CC[C@@H]5C[C@@H]5C4)nn3)c12 [Compound 03A07, O=C1NC=NC=2NC=C(C=3N=NN(C3)C[C@H]4C[C@@H]5[C@@H](C5)CC4)C12] | 84%
28 | O=c1[nH]cnc2[nH]cc(-c3cn(C[C@H]4C[C@@H]5C[C@@H]5C4)nn3)c12 [Compound 03A08, O=C1NC=NC=2NC=C(C=3N=NN(C3)C[C@@H]4C[C@@H]5[C@@H](C5)C4)C12] | 76%
29 | O=c1[nH]cnc2[nH]cc(-c3cn(C[C@@H]4COCCO4)nn3)c12 [Compound 03A10, O=C1NC=NC=2NC=C(C=3N=NN(C3)C[C@H]4OCCOC4)C12] | 57%
30 | O=c1[nH]cnc2[nH]cc(-c3cn(CC(F)(F)F)nn3)c12 [Compound 03A11, FC(F)(F)CN1N=NC(C=2C=3C(=O)NC=NC3NC2)=C1] | 14%
31 | O=c1[nH]cnc2[nH]cc(-c3cn([C@H]4CCCNCC4)nn3)c12 [Compound 03A12, O=C1NC=NC=2NC=C(C=3N=NN(C3)[C@@H]4CC[NH2+]CCC4)C12] | 18%
32 | O=c1[nH]cnc2[nH]cc(-c3cn(-c4cccc5ncccc45)nn3)c12 [Compound 03B01, O=C1NC=NC=2NC=C(C=3N=NN(c4c5c(nccc5)ccc4)C3)C12] | 20%
33 | CC(CO)(CO)Cn1cc(-c2c[nH]c3nc[nH]c(=O)c23)nn1 [Compound 03B02, O=C1NC=NC=2NC=C(C=3N=NN(C3)CC(CO)(CO)C)C12] | 67%
34 | O=c1[nH]cnc2[nH]cc(-c3cn(Cc4cc(-c5ccco5)on4)nn3)c12 [Compound 03B03, O=C1NC=NC=2NC=C(C=3N=NN(C3)CC4=NOC(C=5OC=CC5)=C4)C12] | 49%
35 | O=c1[nH]cnc2[nH]cc(-c3cn(CCn4cnc5ccccc54)nn3)c12 [Compound 03B04, O=C1NC=NC=2NC=C(C=3N=NN(C3)CCN4c5c(N=C4)cccc5)C12] | 71%
36 | Cc1cc(C)cc(-n2cc(-c3c[nH]c4nc[nH]c(=O)c34)nn2)c1 [Compound 03B05, O=C1NC=NC=2NC=C(C=3N=NN(c4cc(cc(c4)C)C)C3)C12] | 24%
37 | O=c1[nH]cnc2[nH]cc(-c3cn([C@H]4CC5(CCC5)Oc5ccc(F)cc54)nn3)c12 [Compound 03B06, Fc1cc2c(OC3(C[C@@H]2N4N=NC(C=5C=6C(=O)NC=NC6NC5)=C4)CCC3)cc1] | 70%
38 | NC(=O)[C@@H](c1ccc(F)cc1)n1cc(-c2c[nH]c3nc[nH]c(=O)c23)nn1 [Compound 03B07, Fc1ccc(cc1)[C@@H](N2N=NC(C=3C=4C(=O)NC=NC4NC3)=C2)C(=O)N] | 16%
39 | Cc1nc(C)c(Cn2cc(-c3c[nH]c4nc[nH]c(=O)c34)nn2)o1 [Compound 03B08, O=C1NC=NC=2NC=C(C=3N=NN(C3)CC=4OC(=NC4C)C)C12] | 50%
40 | O=c1[nH]cnc2[nH]cc(-c3cn(-c4ccc(C(F)(F)F)cc4)nn3)c12 [Compound 03B09, FC(F)(F)c1ccc(N2N=NC(C=3C=4C(=O)NC=NC4NC3)=C2)cc1] | 15%
41 | COC(=O)CCCn1cc(-c2c[nH]c3nc[nH]c(=O)c23)nn1 [Compound 03B10, O=C(OC)CCCN1N=NC(C=2C=3C(=O)NC=NC3NC2)=C1] | 58%
42 | O=c1[nH]cnc2[nH]cc(-c3cn(CCOCC4CCCC4)nn3)c12 [Compound 03B11, O=C1NC=NC=2NC=C(C=3N=NN(C3)CCOCC4CCCC4)C12] | 44%
43 | C[C@@H]1CNC[C@H]1n1cc(-c2c[nH]c3nc[nH]c(=O)c23)nn1 [Compound 03B12, O=C1NC=NC=2NC=C(C=3N=NN(C3)[C@H]4[C@@H](C[NH2+]C4)C)C12] | 19%
44 | O=c1[nH]cnc2[nH]cc(-c3cn(CCP(=O)(O)O)nn3)c12 [Compound 03C01, P([O-])([O-])(=O)CCN1N=NC(C=2C=3C(=O)NC=NC3NC2)=C1] | 28%
45 | C[C@@H](CN)n1cc(-c2c[nH]c3nc[nH]c(=O)c23)nn1 [Compound 03C02, O=C1NC=NC=2NC=C(C=3N=NN(C3)[C@H](C[NH3+])C)C12] | 40%
46 | O=c1[nH]cnc2[nH]cc(-c3cn(Cc4ccc5c(c4)OCO5)nn3)c12 [Compound 03C03, O=C1NC=NC=2NC=C(C=3N=NN(C3)Cc4cc5OCOc5cc4)C12] | 70%
